Entries after “also recorded” stand apart in the source; their conditions may differ. Square brackets hold non-standard residues; d marks the D form. Peptide text beside a SMILES is read from it. hArg = N=C(N)NCCCC[C@H](N)C(=O)O; Aib = CC(C)(N)C(=O)O
Tests used:
[1] = tested on: embryonic mouse metatarsals; assay: Inhibition of chondrocyte differentiation in embryonic mouse metatarsals (explant assay); format: cell-based; conditions: for effect on mineralization / chondrocyte differentiation: E15.5 mouse metatarsals, 48 h treatment, PTH(1-34) 0.1 μM, [Aib^1,3,M]PTH(1-14) 1 μM, native PTH(1-14) 2 μM; for expression of the collagen X gene (mRNA in situ hybridization): explanted metatarsals, data not shown
Procedure: Inhibition of Chondrocyte Differentiation in Embryonic Mouse Metatarsals. Metatarsals from embryonic day (E) 15.5 mouse embryos were excised and cultured in a 37° C. humidified incubator (5% CO2) in serum -free αXMEM media in 24 well plates. Sixteen hours later, a PTH analog or vehicle was added, and the samples were incubated for an additional 48 h in 37° C. with peptide or vehicle added again at the 24 h time point. At the end of the 64 h incubation period, the samples were fixed with 10% formalin/phosphate-buffered saline, then directly visualized on a dissecting microscope using white light. Sections were processed for in-situ hybridization analysis using ^35S-labeled riboprobes specific for collagen type X mRNA, a developmental marker gene expressed only in hypertrophic chrondrocytes of the growth plate.
Whether or not [Aib^1,3,M]PTH(1-14) activity could be detected in a more intact bone system was studied in an explant assay. An explant assay utilized cartilaginous metatarsal rudiments isolated from E15.5mouse embryos and subsequently cultured in multi-well plates containing serum-free media. A PTH peptide analog or vehicle control, was added to the culture 16 h after explantion, then again at 24 h. The incubation was terminated 24 h later for a total of 48 h of treatment over a 64 h period. In the absence of PTH, chondrocyte differentation occurred, such that by the end of the experiment, dense mineralization was apparent at the bone's mid-section (FIG. 5A). […] These inhibitory effects were consistent with the known capacity of PTHRP to retard chondrocyte differentiation in the growth plate cartilage of developing long bones (Pellegrini, M., et al., Biochemistry 37:12737-12743 (1998)).

[2] = target: T1, wild-type human P1R (hP1R-WT) (Homo sapiens, UniProt Q03431); assay: Competition binding in COS-7 cells expressing hP1R-WT
T1 construct: expressed in transfected cells; host or cells: COS-7 (transient, FuGENE 6)
T1 sequence (Q03431 27-593): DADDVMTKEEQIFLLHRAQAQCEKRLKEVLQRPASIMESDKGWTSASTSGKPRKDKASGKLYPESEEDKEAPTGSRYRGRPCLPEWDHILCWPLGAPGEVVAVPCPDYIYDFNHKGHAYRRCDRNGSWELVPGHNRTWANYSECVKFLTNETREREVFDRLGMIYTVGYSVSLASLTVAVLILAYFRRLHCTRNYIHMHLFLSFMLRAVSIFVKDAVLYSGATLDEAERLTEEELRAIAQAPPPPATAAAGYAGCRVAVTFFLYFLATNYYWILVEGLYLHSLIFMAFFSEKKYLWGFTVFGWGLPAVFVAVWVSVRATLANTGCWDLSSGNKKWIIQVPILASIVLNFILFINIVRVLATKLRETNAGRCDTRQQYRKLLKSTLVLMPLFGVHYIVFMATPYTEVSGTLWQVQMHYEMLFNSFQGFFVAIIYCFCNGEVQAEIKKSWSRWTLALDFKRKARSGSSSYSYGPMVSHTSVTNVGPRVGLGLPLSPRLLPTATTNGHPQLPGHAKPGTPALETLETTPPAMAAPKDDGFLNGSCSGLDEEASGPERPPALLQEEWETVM
Procedure: Cell Culture. The cell line HKRK-B28 (Takasu, H., et al., J. Bone Miner. Res. 14:11-20 (1999)) was derived from the porcine kidney cell line, LLC-PK1 by stable transfection with plasmid DNA encoding the human P1R and expresses ˜280,000 receptors per cell. These cells, as well as COS-7 cells and SaOS-2-B10 cells, were cultured at […] in T-75 flasks ([…]) in Dulbecco's modified Eagle's medium (DMEM) supplemented with fetal bovine serum (10%), penicillin G (20 units/ml), streptomycin sulfate (20 μg/ml) and amphotericin B (0.05 μg/ml) in a humidified atmosphere containing 5% CO2. Stock solutions of EGTA/trypsin and antibiotics were from GIBCO; fetal bovine serum was from Hyclone Laboratories (Logan, Utah). COS-7 cells sub-cultured in 24-well plates were transfected with plasmid DNA (200 ng per well) encoding the wild-type human P1R or truncated human P1R deleted for residues (24-181) (Shimizu, M., et al., J. Biol. Chem. 275:21836-21843 (2000)) that was purified by cesium chloride/ethidium bromide density gradient centrifugation, and FuGENE 6 transfection reagent (Roche Indianapolis Ind.) according to the manufacturer's recommended procedure. All cells, in 24-well plates, were treated with fresh media and shifted to 33° C. for 12 to 24 h prior to assay.
Competition Binding. Binding reactions were performed with HKRK-B28 cells or in COS-7 cells in 24-well plates. The cells were rinsed with 0.5 mL of binding buffer, and then treated successively with 100 μL binding buffer, 100 μL of binding buffer containing various amounts of unlabeled competitor ligand, and 100 μL of binding buffer containing ca. 100,000 cpm of ^125I-[M]PTH(1-21) or ^125I-[Aib^1,3,M]PTH(1-21)} (ca. 26 fmol; final volume=300 μL). Incubations were 4 to 6 h at 4° C., at which time near equilibrium conditions were attained. Cells were then placed on ice, the binding medium was removed, and the monolayer was rinsed three times with 0.5 mL of cold binding buffer. The cells were subsequently lysed with 0.5 mL […] and counted for radioactivity. For each tracer and in each experiment, the non-specific binding was determined as the radioactivity that bound in the presence of the same unlabeled peptide at a concentration of 1 μM, and was ˜1% of total radioactivity added for each tracer. The maximum specific binding (B0) was the total radioactivity bound in the absence of competing ligand, corrected for nonspecific binding, and for each tracer, ranged from 8% to 20% of the total radioactivity added. Nonlinear regression was used to calculate binding IC50 values (see below). Scatchard transformations of homologous competition binding data derived from studies with 26 fmol of ^125I-[Aib^1,3,M]PTH(1-21) were employed for estimations of apparent equilibrium dissociation constant (kDapps) and total number of ligand binding sites (Bmax), assuming a single class of binding sites and equal affinities of the iodinated and non iodinated ligand.
Data Calculation. Calculations were performed using Microsoft® Excel. Nonlinear regression analyses of binding and cAMP dose-response data were performed using the four-parameter equation: yp=Min+[(Max−Min)/(1+(IC50/x)^slope)]. […] Differences between paired data sets were statistically evaluated using a one-tailed Student's t-test, assuming unequal variances for the two sets. […]

[3] = COS-7 cells, hP1R-WT, tracer 125I-[Aib^1,3,M]PTH(1-21), N.B. = no inhibition of tracer binding

Row | Binding IC50 [2, 3] | IC50 [2, 3] [µM] | binding affinity, fold stronger than [M]PTH(1-14) ([2]; P1R-WT) [fold] | Compound | effect on mineralization / chondrocyte differentiation [1] | expression of the collagen X gene (mRNA in situ hybridization) [1]
1 | N.B. |  |  | CC[C@H](C)[C@H](NC(=O)[C@H](CCC(=O)O)NC(=O)C(C)(C)NC(=O)[C@@H](NC(=O)C(C)(C)N)C(C)C)C(=O)N[C@@H](CCC(N)=O)C(=O)N[C@@H](CC(C)C)C(=O)N[C@@H](CCSC)C(=O)N[C@@H](Cc1c[nH]cn1)C(=O)N[C@@H](CCC(N)=O)C(N)=O [[Aib^1,3,M]PTH(1-10), [Aib^1,3,Gln^10]PTH(1-10)] (H-[Aib]V[Aib]EIQLMHQ-NH2) |  | 
2 | N.B. |  |  | H-AVSEIQLMHNLGKH-NH2 [PTH(1-14), reference compound] | no effect could be detected; also recorded: mineralization can be detected | 

Second part, the compound before the results:

Row | Compound | Binding IC50 [2, 3] | IC50 [2, 3] [µM] | binding affinity, fold stronger than [M]PTH(1-14) ([2]; P1R-WT) [fold] | effect on mineralization / chondrocyte differentiation [1] | expression of the collagen X gene (mRNA in situ hybridization) [1]
3 | CCCC[C@H](NC(=O)[C@H](CCCNC(=N)N)NC(=O)[C@H](CCC(=O)O)NC(=O)[C@@H](NC(=O)[C@H](CO)NC(=O)[C@H](C)NC(=O)[C@H](CC(C)C)NC(=O)[C@H](Cc1c[nH]cn1)NC(=O)[C@H](CCCCN)NC(=O)CNC(=O)[C@H](CC(C)C)NC(=O)[C@H](CC(N)=O)NC(=O)[C@H](Cc1c[nH]cn1)NC(=O)[C@H](CCCC)NC(=O)[C@H](CC(C)C)NC(=O)[C@H](CCC(N)=O)NC(=O)[C@@H](NC(=O)[C@H](CCC(=O)O)NC(=O)[C@H](CO)NC(=O)[C@@H](NC(=O)[C@H](C)N)C(C)C)[C@@H](C)CC)C(C)C)C(=O)N[C@@H](CCC(N)=O)C(=O)N[C@@H](Cc1c[nH]c2ccccc12)C(=O)N[C@@H](CC(C)C)C(=O)N[C@@H](CCCNC(=N)N)C(=O)N[C@@H](CCCCN)C(=O)N[C@@H](CCCCN)C(=O)N[C@@H](CC(C)C)C(=O)N[C@@H](CCC(N)=O)C(=O)N[C@@H](CC(=O)O)C(=O)N[C@H](C(=O)N[C@@H](Cc1c[nH]cn1)C(=O)N[C@@H](CC(N)=O)C(=O)N[C@@H](Cc1ccc(O)cc1)C(N)=O)C(C)C [PTH(1-34), [Nle^8,21, Tyr^34]PTH(1-34)amide, reference compound] |  |  |  | no mineralization was observed; also recorded: inhibited mineralization | inhibited expression of the collagen X gene
4 | CC[C@H](C)[C@H](NC(=O)[C@H](CCC(=O)O)NC(=O)C(C)(C)NC(=O)[C@@H](NC(=O)C(C)(C)N)C(C)C)C(=O)N[C@@H](CCC(N)=O)C(=O)N[C@@H](CC(C)C)C(=O)N[C@@H](CCSC)C(=O)N[C@@H](Cc1c[nH]cn1)C(=O)N[C@@H](CCC(N)=O)C(=O)N[C@@H](CCCCNC(=N)N)C(N)=O [[Aib^1,3,M]PTH(1-11), AibValAibGluIleGlnLeuMetHisGlnHar] (H-[Aib]V[Aib]EIQLMHQ[hArg]-NH2) |  | 16 |  |  | 
5 | CC[C@H](C)[C@H](NC(=O)[C@H](CCC(=O)O)NC(=O)C(C)(C)NC(=O)[C@@H](NC(=O)C(C)(C)N)C(C)C)C(=O)N[C@@H](CCC(N)=O)C(=O)N[C@@H](CC(C)C)C(=O)N[C@@H](CCSC)C(=O)N[C@@H](Cc1c[nH]cn1)C(=O)N[C@@H](CCC(N)=O)C(=O)N[C@@H](CCCCNC(=N)N)C(=O)N[C@@H](C)C(=O)N[C@@H](CCCCN)C(=O)N[C@@H](Cc1c[nH]c2ccccc12)C(N)=O [[Aib^1,3,M]PTH(1-14), AibValAibGluIleGlnLeuMetHisGlnHarAlaLysTrp] (H-[Aib]V[Aib]EIQLMHQ[hArg]AKW-NH2) |  |  | ~10 | no mineralization was observed; also recorded: inhibited mineralization | inhibited expression of the collagen X gene

— patent US7572765B2, “Conformationally constrained parathyroid hormone (PTH) analogs” (The General Hospital Corporation, priority 2001, dated 2009)
